Results on 27 molecules are retold here after patent US10280159B2 (AbbVie Deutschland GmbH & Co. KG, priority 2015, dated 2019).

Holding throughout (assay type): cell-based
One experiment concerns the target T1, human S1PR1 (Homo sapiens, UniProt P21453).
T1 construct: host or cells: CHO-K1
The experiment can be described thus: Intracellular Ca2+ release (FLIPR) agonist potency, S1P1. Conditions: recombinant CHO-K1 cells expressing human S1PR1, aequorin, Gq/i5; Calcium 5 FLIPR; read-out: S1P1 EC50. The procedure, abridged:
(§1)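 EC50 values reflect nonlinear fits of FLIPR fluorescence data, normalized to the phospho-fingolimod curve. Cells were CHO-K1 expressing the human receptor, aequorin and Gq/i5, cultured in F-12 Ham with 10% FBS.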

The next experiment addresses T2, human S1PR5 (Homo sapiens, UniProt Q9H228).
T2 construct: host or cells: CHO-K1
The experiment can be described thus: Intracellular Ca2+ release (FLIPR) agonist potency, S1P5. Conditions: recombinant CHO-K1 cells expressing human S1PR5, aequorin, Gq/i5; Calcium 5 FLIPR; read-out: S1P5 EC50 range. The procedure, abridged:
as §1

The target of another experiment is T3, human S1PR3 (Homo sapiens, UniProt Q99500).
T3 construct: host or cells: CHO-K1
The experiment in a line: Intracellular Ca2+ release (FLIPR) agonist potency, S1P3. The note with it: recombinant CHO-K1 cells expressing human S1PR3, aequorin, Gq/i5; Calcium 5 FLIPR; read-out: S1P3 EC50. As to the method: Agonistic activity was measured using the method described below.
Intracellular Ca^2+ Release
Agonist potency and intrinsic activity was assessed by measurement of intracellular Ca^2+ release. Recombinant CHO-K1 cells (Euroscreen, Brussels, Belgium) expressing human S1PR5, S1PR1, S1PR3 or S1PR4 receptors, aequorin, and GTP binding protein Gq/i5 were cultured using a medium containing nutrient mixture F-12 Ham (Sigma-Aldrich) with 10% FBS, and 100 μg/mL gentamicin and equilibrated at 5% CO2.
Phospho-fingolimod was used as positive control. Antagonists were pre-incubated for 10 min with cells before addition of the agonist (phospho-fingolimod at EC80). Measurements were performed using a fluorometric imaging plate reader FLIPR®tetra (Molecular Devices). Agonist at the human S1P receptors were characterized by deducing EC50 (potency) values from a nonlinear fit to the measured fluorescence raw data after normalization to the reference agonist (phospho-fingolimod) curve.

For another experiment, the target named is T4, human S1PR4 (Homo sapiens, UniProt O95977).
T4 construct: host or cells: CHO-K1
T4 sequence (O95977 1-384): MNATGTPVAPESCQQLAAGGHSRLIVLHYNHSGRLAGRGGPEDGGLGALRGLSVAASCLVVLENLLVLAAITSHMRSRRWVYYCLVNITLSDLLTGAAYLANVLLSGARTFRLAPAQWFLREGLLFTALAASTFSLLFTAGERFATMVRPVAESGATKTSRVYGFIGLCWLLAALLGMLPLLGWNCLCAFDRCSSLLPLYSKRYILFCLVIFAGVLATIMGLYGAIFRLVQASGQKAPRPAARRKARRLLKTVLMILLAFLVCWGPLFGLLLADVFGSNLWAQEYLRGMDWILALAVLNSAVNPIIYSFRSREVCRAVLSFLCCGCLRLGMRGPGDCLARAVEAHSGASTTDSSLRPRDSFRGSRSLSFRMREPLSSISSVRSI
The experiment in a line: Intracellular Ca2+ release (FLIPR) agonist potency, S1P4. The note with it: recombinant CHO-K1 cells expressing human S1PR4, aequorin, Gq/i5; Calcium 5 FLIPR; read-out: S1P4 EC50. A digest of the protocol:
as §1

The EC50 is the midpoint of the concentration-response curve.

T1 sequence (P21453 whole entry): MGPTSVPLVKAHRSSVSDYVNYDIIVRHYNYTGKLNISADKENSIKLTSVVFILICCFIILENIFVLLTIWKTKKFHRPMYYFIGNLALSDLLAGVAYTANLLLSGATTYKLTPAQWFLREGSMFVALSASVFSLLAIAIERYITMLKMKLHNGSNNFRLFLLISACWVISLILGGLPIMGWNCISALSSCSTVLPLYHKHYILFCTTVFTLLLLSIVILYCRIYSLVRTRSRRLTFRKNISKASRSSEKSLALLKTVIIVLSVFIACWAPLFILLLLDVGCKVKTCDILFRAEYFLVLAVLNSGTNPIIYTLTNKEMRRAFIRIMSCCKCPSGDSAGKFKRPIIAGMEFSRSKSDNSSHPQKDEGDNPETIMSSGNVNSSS
T2 sequence (Q9H228 whole entry): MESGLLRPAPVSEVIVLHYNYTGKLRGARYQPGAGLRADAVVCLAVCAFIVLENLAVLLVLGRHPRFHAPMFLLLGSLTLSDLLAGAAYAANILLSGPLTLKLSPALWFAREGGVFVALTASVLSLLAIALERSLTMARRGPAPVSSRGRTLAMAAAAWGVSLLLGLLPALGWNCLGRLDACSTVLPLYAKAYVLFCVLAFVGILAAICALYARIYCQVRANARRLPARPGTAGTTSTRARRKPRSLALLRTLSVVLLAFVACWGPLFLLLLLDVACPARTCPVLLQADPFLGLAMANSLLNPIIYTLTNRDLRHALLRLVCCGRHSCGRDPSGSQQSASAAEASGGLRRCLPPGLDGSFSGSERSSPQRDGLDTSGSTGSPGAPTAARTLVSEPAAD
T3 sequence (Q99500 whole entry): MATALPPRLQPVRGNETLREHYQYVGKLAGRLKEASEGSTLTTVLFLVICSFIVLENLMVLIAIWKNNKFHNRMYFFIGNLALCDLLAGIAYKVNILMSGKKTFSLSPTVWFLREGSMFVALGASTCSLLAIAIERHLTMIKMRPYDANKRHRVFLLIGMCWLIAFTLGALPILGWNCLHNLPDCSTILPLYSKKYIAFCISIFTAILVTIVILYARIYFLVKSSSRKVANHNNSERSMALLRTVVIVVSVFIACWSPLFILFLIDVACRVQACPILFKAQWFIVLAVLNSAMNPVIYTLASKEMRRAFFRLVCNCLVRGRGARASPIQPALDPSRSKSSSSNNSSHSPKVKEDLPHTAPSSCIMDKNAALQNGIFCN

For `O=C(O)C1CN(C2CCc3cc(OCc4c(Cl)cccc4Cl)ccc3C2)C1` (stereo not drawn) [Compound 4, 1-(6-((2,6-dichlorobenzyl)oxy)-1,2,3,4-tetrahydronaphthalen-2-yl)azetidine-3-carboxylic acid], the figures for the EC50 at human S1PR1, at human S1PR5 and on human S1PR3 were more than 1000 nM, less than 10 nM and more than 1000 nM, respectively.
As to `O=C(O)COC1CCc2cc(OCc3cccc(F)c3)ccc2C1` (stereo not drawn) [Compound 198, 2-[6-[(3-fluorophenyl)methoxy]tetralin-2-yl]oxyacetic acid], the figures for the EC50 on human S1PR1, on human S1PR5 and on human S1PR4 were more than 1000 nM, 1000 to 10000 nM and more than 1000 nM, respectively.
With `O=C(O)COC1CCc2cc(OCc3ccc(Cl)c(Cl)c3)ccc2C1` (stereo not drawn) [Compound 199, 2-[6-[(3,4-dichlorophenyl)methoxy]tetralin-2-yl]oxyacetic acid], the EC50 is more than 1000 nM at human S1PR1, 1000 to 10000 nM at human S1PR5 and more than 1000 nM at human S1PR4.
For `Cc1c(COc2ccc3c(c2)CCC(OCC(=O)O)C3)cccc1C(F)(F)F` (stereo not drawn) [Compound 200, 2-[6-[[2-methyl-3-(trifluoromethyl)phenyl]methoxy]tetralin-2-yl]oxyacetic acid], the figures for the EC50 at human S1PR1, at human S1PR5 and on human S1PR4 were more than 1000 nM, 1000 to 10000 nM and more than 1000 nM, respectively.
Regarding `CSc1ccc(COc2ccc3c(c2)CCC(OCC(=O)O)C3)cc1` (stereo not drawn) [Compound 201, 2-[6-[(4-methylsulfanylphenyl)methoxy]tetralin-2-yl]oxyacetic acid], the figures for the EC50 on human S1PR1, on human S1PR5 and on human S1PR4 were more than 1000 nM, 1000 to 10000 nM and more than 1000 nM, respectively.
Regarding `O=C(O)COC1CCc2cc(OCc3ccc(OC(F)(F)F)cc3)ccc2C1` (stereo not drawn) [Compound 203, 2-[6-[[4-(trifluoromethoxy)phenyl]methoxy]tetralin-2-yl]oxyacetic acid], the figures for the concentration for a half-maximal effect (EC50) on human S1PR1, at human S1PR5 and at human S1PR4 were more than 1000 nM, 1000 to 10000 nM and more than 1000 nM, respectively.
In the case of `O=C(O)COC1CCc2cc(OCc3cccc(F)c3F)ccc2C1` (stereo not drawn) [Compound 204, 2-[6-[(2,3-difluorophenyl)methoxy]tetralin-2-yl]oxyacetic acid], the EC50 at human S1PR1 is more than 1000 nM; at human S1PR5, 1000 to 10000 nM; at human S1PR4, more than 1000 nM.
Take `O=C(O)COC1CCc2cc(OCc3cccc(Cl)c3)ccc2C1` (stereo not drawn) [Compound 205, 2-[6-[(3-chlorophenyl)methoxy]tetralin-2-yl]oxyacetic acid]: the EC50 on human S1PR1 is more than 1000 nM; at human S1PR5 it was 100 to 1000 nM; at human S1PR4 it was more than 1000 nM.
In the case of `O=C(O)COC1CCc2cc(OCc3ccccc3Cl)ccc2C1` (stereo not drawn) [Compound 206, 2-[6-[(2-chlorophenyl)methoxy]tetralin-2-yl]oxyacetic acid], the EC50 was more than 1000 nM at human S1PR1, 1000 to 10000 nM at human S1PR5 and more than 1000 nM at human S1PR4.
On to `O=C(O)COC1CCc2cc(OCc3ccccc3OC(F)(F)F)ccc2C1` (stereo not drawn) [Compound 208, 2-[6-[[2-(trifluoromethoxy)phenyl]methoxy]tetralin-2-yl]oxyacetic], for which the concentration giving a half-maximal response (EC50) is more than 1000 nM on human S1PR1, 100 to 1000 nM on human S1PR5 and more than 1000 nM on human S1PR4.
Take `O=C(O)COC1CCc2cc(OCc3ccc(Cl)cc3)ccc2C1` (stereo not drawn) [Compound 209, 2-[6-[(4-chlorophenyl)methoxy]tetralin-2-yl]oxyacetic acid]: the EC50 at human S1PR1 was more than 1000 nM; at human S1PR5, 1000 to 10000 nM; at human S1PR4, more than 1000 nM.
With `O=C(O)COC1CCc2cc(OCc3ccc(F)c(F)c3)ccc2C1` (stereo not drawn) [Compound 212, 2-[6-[(3,4-difluorophenyl)methoxy]tetralin-2-yl]oxyacetic acid], the half-maximal effective concentration (EC50) is more than 1000 nM on human S1PR1, 1000 to 10000 nM on human S1PR5 and more than 1000 nM at human S1PR4.
With `O=C(O)COC1CCc2cc(OCc3ccc(F)cc3)ccc2C1` (stereo not drawn) [Compound 214, 2-[6-[(4-fluorophenyl)methoxy]tetralin-2-yl]oxyacetic acid], the EC50 on human S1PR1 is more than 1000 nM; at human S1PR5, 1000 to 10000 nM; on human S1PR4, more than 1000 nM.
For the molecule `CCc1cccc(Cl)c1COc1ccc2c(c1)CCC(N1CC(C(=O)N(C)OC)C1)C2` (stereo not drawn) [Compound 217, 1-[6-[(2-chloro-6-ethyl-phenyl)methoxy]tetralin-2-yl]-N-methoxy-N-methyl-azetidine-3-carboxamide], the EC50 is more than 1000 nM on human S1PR1, 100 to 1000 nM at human S1PR5 and more than 1000 nM on human S1PR4.
On to `O=C(O)C1CN(C2COc3cc(OCc4c(Cl)cccc4Cl)c(Br)cc3C2)C1` (stereo not drawn) [Compound 221, 1-[6-bromo-7-[(2,6-dichlorophenyl)methoxy]chroman-3-yl]azetidine-3-carboxylic acid], for which the figures for the EC50 on human S1PR1, at human S1PR5 and at human S1PR4 were more than 1000 nM, 10 to 100 nM and more than 1000 nM, respectively.
Take `Cc1cc2c(cc1OCc1c(Cl)cccc1Cl)OCC(N1CC(C(=O)O)C1)C2` (stereo not drawn) [Compound 222, 1-[7-[(2,6-dichlorophenyl)methoxy]-6-methyl-chroman-3-yl]azetidine-3-carboxylic acid]: the EC50 was more than 1000 nM at human S1PR1, 10 to 100 nM at human S1PR5 and more than 1000 nM at human S1PR4.
For the molecule `O=C(O)C1CN(C2CCOc3cc(OCc4c(Cl)cccc4Cl)c(F)cc32)C1` (stereo not drawn) [Compound 223, 1-[7-[(2,6-dichlorophenyl)methoxy]-6-fluoro-chroman-4-yl]azetidine-3-carboxylic acid], the EC50 at human S1PR1 was more than 1000 nM; at human S1PR5, less than 10 nM; at human S1PR4, more than 1000 nM.
`O=C(O)C1CN(C2COc3c(cccc3OCc3c(Cl)cccc3Cl)C2)C1` (stereo not drawn) [Compound 225, 1-[8-[(2,6-dichlorophenyl)methoxy]chroman-3-yl]azetidine-3-carboxylic acid]: the figures for the concentration for a half-maximal effect (EC50) at human S1PR1, on human S1PR5 and at human S1PR4 were more than 1000 nM, 1000 to 10000 nM and more than 1000 nM, respectively.
As to `O=C(O)C1CN(C2COc3cc(OCCc4ccccc4)ccc3C2)C1` (stereo not drawn) [Compound 226, 1-(7-phenethyloxychroman-3-yl)azetidine-3-carboxylic acid], the EC50 on human S1PR1 was more than 1000 nM; at human S1PR5, 1000 to 10000 nM; on human S1PR4 it was more than 1000 nM.
On to `O=C(O)C1CN(C2COc3cc(OCCc4ccccc4Cl)ccc3C2)C1` (stereo not drawn) [Compound 227, 1-[7-[2-(2-chlorophenyl)ethoxy]chroman-3-yl]azetidine-3-carboxylic acid], for which the EC50 on human S1PR1 was more than 1000 nM; at human S1PR5, 1000 to 10000 nM; on human S1PR4, more than 1000 nM.
`O=C(O)C1CN(C2COc3cc(OCCc4ccc(Cl)cc4)ccc3C2)C1` (stereo not drawn) [Compound 228, 1-[7-[2-(4-chlorophenyl)ethoxy]chroman-3-yl]azetidine-3-carboxylic acid]: the EC50 on human S1PR1 was more than 1000 nM; on human S1PR5, 1000 to 10000 nM; at human S1PR4 it was more than 1000 nM.
As for `O=C(O)C1CN(C2COc3cc(Oc4c(Cl)cccc4Cl)ccc3C2)C1` (stereo not drawn) [Compound 229, 1-[7-(2,6-dichlorophenoxy)chroman-3-yl]azetidine-3-carboxylic acid], the EC50 at human S1PR1 was more than 1000 nM; at human S1PR5 it was 1000 to 10000 nM; at human S1PR4, more than 1000 nM.
As for `O=C(O)C1CN(C2COc3cc(OCC4CCC4)ccc3C2)C1` (stereo not drawn) [Compound 230, 1-[7-(cyclobutylmethoxy)chroman-3-yl]azetidine-3-carboxylic acid], the EC50 is more than 1000 nM on human S1PR1, 1000 to 10000 nM at human S1PR5 and more than 1000 nM on human S1PR4.
As for `O=C(O)C1CN(C2COc3cc(OCC4CC4)ccc3C2)C1` (stereo not drawn) [Compound 231, 1-[7-(cyclopropylmethoxy)chroman-3-yl]azetidine-3-carboxylic acid], the EC50 on human S1PR1 was more than 1000 nM; on human S1PR5, 1000 to 10000 nM; at human S1PR4 it was more than 1000 nM.
With `CCc1cccc(Cl)c1COc1ccc2c(c1)OCC(OCC(=O)O)C2` (stereo not drawn) [Compound 233, ((7-((2-chloro-6-ethylbenzyl)oxy)chroman-3-yl)oxy)acetic acid], the values for the EC50 at human S1PR1, at human S1PR5 and on human S1PR4 were more than 1000 nM, less than 10 nM and more than 1000 nM, respectively.
For `O=C(O)COC1COc2cc(OCc3c(F)ccc(Cl)c3F)ccc2C1` (stereo not drawn) [Compound 234, 2-((7-((3-chloro-2,6-difluorobenzyl)oxy)chroman-3-yl)oxy)acetic acid], the values for the concentration giving a half-maximal response (EC50) on human S1PR1, at human S1PR5 and at human S1PR4 were more than 1000 nM, 1000 to 10000 nM and more than 1000 nM, respectively.
Consider `O=C(O)CNC1COc2cc(-c3ccc(OCc4ccccc4)cc3)ccc2C1` (stereo not drawn) [Compound 237, 2-((7-(4-(benzyloxy)phenyl)chroman-3-yl)amino)acetic acid], for which the results for the EC50 at human S1PR1, at human S1PR5 and on human S1PR4 were more than 1000 nM, less than 10 nM and more than 1000 nM, respectively.
